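Step 1: Grow cells in 96-well plates. Step 2: Expose to compound for 48 hours at 5 concentrations. Step 3: Interpolate endpoints linearly; if unreached, use highest concentration. At the GI50, growth is halved.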 The source made the active and inactive calls. Cut-off read from the data, not from the text of the source: active = GI50 up to about 1.1 µM and inactive = higher.
Tests used:
Test in all cases: NCI tumour cell line growth inhibition, 48 h
NCI-H23 = test system: NCI-H23
Hs-578T = test system: Hs-578T
HCT-15 = test system: HCT-15
OVCAR-8 = test system: OVCAR-8
LOX IMVI = test system: LOX IMVI
HOP-62 = test system: HOP-62
CAKI-1 = test system: CAKI-1
SNB-19 = test system: SNB-19
SF-268 = test system: SF-268
MOLT-4 = test system: MOLT-4
NCI-H522 = test system: NCI-H522
SF-295 = test system: SF-295
HT-29 = test system: HT-29
KM12 = test system: KM12
MDA-MB-435 = test system: MDA-MB-435
OVCAR-4 = test system: OVCAR-4
HL-60 = test system: HL-60
SR = test system: SR
UACC-257 = test system: UACC-257

Compound	GI50 (NCI-H23)	GI50 (Hs-578T)	GI50 (HCT-15) [µM]	GI50 (OVCAR-8)	GI50 (LOX IMVI)	GI50 (HOP-62)	GI50 (CAKI-1)	GI50 (SNB-19)	GI50 (SF-268)	GI50 (MOLT-4)	GI50 (NCI-H522)	GI50 (SF-295)	GI50 (HT-29)	GI50 (KM12)	GI50 (MDA-MB-435)	GI50 (OVCAR-4)	GI50 (HL-60)	GI50 (SR)	GI50 (UACC-257)
COc1cc(C2C3=C(COC3=O)Oc3cc4c(cc32)OCO4)cc(OC)c1OC(C)=O (stereo not drawn)	0.0233 µM (active)	0.0101 µM (active)	0.0226	0.0316 µM (active)	0.0331 µM (active)	0.0157 µM (active)	< 0.01 µM (active)	0.024 µM (active)	0.0608 µM (active)	0.0612 µM (active)	< 0.01 µM (active)	0.0316 µM (active)	0.0262 µM (active)	0.0135 µM (active)	< 0.01 µM (active)	29.6 µM (inactive)	< 0.0104 µM (active)	0.0406 µM (active)	–
Oc1cc(Br)cc2cccnc12	2.58 µM (inactive)	1.7 µM (inactive)	0.697	1.29 µM (inactive)	0.908 µM (active)	5.31 µM (inactive)	3.15 µM (inactive)	15.6 µM (inactive)	0.698 µM (active)	1.35 µM (inactive)	1.64 µM (inactive)	1.67 µM (inactive)	8.22 µM (inactive)	4.7 µM (inactive)	7.29 µM (inactive)	1.25 µM (inactive)	0.237 µM (active)	0.56 µM (active)	2.6 µM (inactive)
C[C@]12[C@@H]3CC[C@H]1[C@@H](O)C(=O)N2CC3	> 100 µM (inactive)	> 100 µM (inactive)	> 100	> 100 µM (inactive)	> 100 µM (inactive)	> 100 µM (inactive)	> 100 µM (inactive)	> 100 µM (inactive)	> 100 µM (inactive)	> 100 µM (inactive)	> 100 µM (inactive)	> 100 µM (inactive)	> 100 µM (inactive)	> 100 µM (inactive)	> 100 µM (inactive)	> 100 µM (inactive)	> 100 µM (inactive)	> 100 µM (inactive)	> 100 µM (inactive)
O=C1/C(=C/C=C/c2ccccc2)CCC1CNc1ccccc1 (stereo not drawn)	27.7 µM (inactive)	> 67 µM (inactive)	18.4	37.4 µM (inactive)	18.6 µM (inactive)	> 100 µM (inactive)	40.2 µM (inactive)	> 55 µM (inactive)	36.7 µM (inactive)	20.3 µM (inactive)	9.62 µM (inactive)	> 100 µM (inactive)	24.7 µM (inactive)	14.9 µM (inactive)	40.8 µM (inactive)	99.3 µM (inactive)	4.07 µM (inactive)	3.52 µM (inactive)	42.5 µM (inactive)
O=C1/C(=C/c2ccccc2[N+](=O)[O-])N=C(c2ccccc2)N1C1Nc2cc3c(cc2S1)NC(N1C(=O)/C(=C/c2ccccc2[N+](=O)[O-])N=C1c1ccccc1)S3 (stereo not drawn)	29 µM (inactive)	50 µM (inactive)	32.8	39.5 µM (inactive)	35 µM (inactive)	89.5 µM (inactive)	39.7 µM (inactive)	–	47.3 µM (inactive)	19.3 µM (inactive)	17.3 µM (inactive)	63.8 µM (inactive)	36.2 µM (inactive)	52.4 µM (inactive)	51.6 µM (inactive)	53.5 µM (inactive)	24 µM (inactive)	8.51 µM (inactive)	91 µM (inactive)
Oc1ccc(-c2nc3cc(C(F)(F)F)ccc3n2CC2CCCN3CCCCC23)cc1 (stereo not drawn)	16.5 µM (inactive)	15.8 µM (inactive)	16.1	16 µM (inactive)	15.4 µM (inactive)	12.1 µM (inactive)	18 µM (inactive)	–	14.8 µM (inactive)	15 µM (inactive)	15.4 µM (inactive)	13.4 µM (inactive)	13.4 µM (inactive)	15.3 µM (inactive)	13.5 µM (inactive)	15.1 µM (inactive)	3.01 µM (inactive)	16.6 µM (inactive)	16.3 µM (inactive)
COC(=O)C1CC2CCC1(O[Si](C(C)C)(C(C)C)C(C)C)C(O)C2 (stereo not drawn)	20.9 µM (inactive)	18.1 µM (inactive)	16.9	14.9 µM (inactive)	14.4 µM (inactive)	18.4 µM (inactive)	38.5 µM (inactive)	19.1 µM (inactive)	26.2 µM (inactive)	10.9 µM (inactive)	21.8 µM (inactive)	20 µM (inactive)	16.6 µM (inactive)	17.6 µM (inactive)	16.2 µM (inactive)	28.6 µM (inactive)	13.1 µM (inactive)	13.6 µM (inactive)	–
CCCCC1Nc2ccccc2-c2ccnc(Cl)c21 (stereo not drawn)	16.5 µM (inactive)	15 µM (inactive)	16.9	–	16.6 µM (inactive)	19.3 µM (inactive)	3.61 µM (inactive)	24.1 µM (inactive)	23.1 µM (inactive)	17.8 µM (inactive)	11.7 µM (inactive)	21.5 µM (inactive)	10.8 µM (inactive)	20.7 µM (inactive)	16.1 µM (inactive)	20.1 µM (inactive)	17.8 µM (inactive)	18.7 µM (inactive)	20 µM (inactive)
O=C(O)C(NCc1ccccc1)C(NCc1ccccc1)C(=O)O (stereo not drawn)	> 100 µM (inactive)	> 100 µM (inactive)	> 100	> 100 µM (inactive)	> 100 µM (inactive)	> 100 µM (inactive)	> 100 µM (inactive)	> 100 µM (inactive)	> 100 µM (inactive)	> 100 µM (inactive)	> 100 µM (inactive)	> 100 µM (inactive)	> 100 µM (inactive)	> 100 µM (inactive)	> 100 µM (inactive)	> 100 µM (inactive)	> 100 µM (inactive)	> 100 µM (inactive)	> 100 µM (inactive)
C=C1C(=O)O[C@@H]2/C=C(\C)CC/C=C(/COC(C)=O)C[C@@H](OC(C)=O)[C@@H]12	13.6 µM (inactive)	10.4 µM (inactive)	3.28	14.1 µM (inactive)	5.19 µM (inactive)	22.9 µM (inactive)	7.48 µM (inactive)	29.2 µM (inactive)	11.3 µM (inactive)	3.45 µM (inactive)	1.16 µM (inactive)	53.7 µM (inactive)	4.24 µM (inactive)	14.8 µM (inactive)	14.2 µM (inactive)	20.2 µM (inactive)	2.03 µM (inactive)	2.16 µM (inactive)	13.4 µM (inactive)
COc1ccc2nc(N/N=C/c3ccc(C)s3)cc(C)c2c1	13.5 µM (inactive)	22.1 µM (inactive)	7.96	19.5 µM (inactive)	16.3 µM (inactive)	20.1 µM (inactive)	23 µM (inactive)	17.3 µM (inactive)	20.1 µM (inactive)	12.9 µM (inactive)	39.7 µM (inactive)	16.9 µM (inactive)	6.08 µM (inactive)	19.7 µM (inactive)	19 µM (inactive)	13.9 µM (inactive)	27.2 µM (inactive)	25.4 µM (inactive)	17.1 µM (inactive)
O=C(O/N=c1/ccc(=O)/c(=N\OC(=O)c2ccccc2)c1=O)c1ccccc1	> 100 µM (inactive)	> 100 µM (inactive)	> 100	> 100 µM (inactive)	> 100 µM (inactive)	> 100 µM (inactive)	> 100 µM (inactive)	76.2 µM (inactive)	> 100 µM (inactive)	40.2 µM (inactive)	> 100 µM (inactive)	> 100 µM (inactive)	> 100 µM (inactive)	> 100 µM (inactive)	53.6 µM (inactive)	> 100 µM (inactive)	0.857 µM (active)	> 100 µM (inactive)	–
CCOc1ccc(C2Oc3c(cccc3OC)C=C2[N+](=O)[O-])cc1OCC (stereo not drawn)	6.67 µM (inactive)	5.51 µM (inactive)	4.86	2 µM (inactive)	1.97 µM (inactive)	12.6 µM (inactive)	2.94 µM (inactive)	15.2 µM (inactive)	11.6 µM (inactive)	4.22 µM (inactive)	1.84 µM (inactive)	15.3 µM (inactive)	2.86 µM (inactive)	5.43 µM (inactive)	2.82 µM (inactive)	10.9 µM (inactive)	2.14 µM (inactive)	1.62 µM (inactive)	3.66 µM (inactive)
CCOC(=O)C(=C(SC)SC)c1nn2c(=O)cc(C)nc2s1	32.9 µM (inactive)	43.9 µM (inactive)	17.1	23.8 µM (inactive)	15.7 µM (inactive)	> 100 µM (inactive)	24.6 µM (inactive)	27.2 µM (inactive)	22.1 µM (inactive)	17.7 µM (inactive)	23 µM (inactive)	71.8 µM (inactive)	20.9 µM (inactive)	33 µM (inactive)	16.6 µM (inactive)	28.5 µM (inactive)	17.4 µM (inactive)	24.4 µM (inactive)	23.9 µM (inactive)
O=C1CCCC/C1=C\c1ccc([N+](=O)[O-])cc1	24 µM (inactive)	28.3 µM (inactive)	–	19.4 µM (inactive)	1.79 µM (inactive)	11.5 µM (inactive)	18.5 µM (inactive)	17.1 µM (inactive)	34.6 µM (inactive)	5.48 µM (inactive)	11 µM (inactive)	18.2 µM (inactive)	37.3 µM (inactive)	18.3 µM (inactive)	> 10 µM (inactive)	22.5 µM (inactive)	42.5 µM (inactive)	20.2 µM (inactive)	15.5 µM (inactive)

Reference: ChEMBL document CHEMBL1201862, “PubChem BioAssay data set” (2004)
